Results as given in ChEMBL document CHEMBL1909294, “Translating clinical findings into knowledge in drug safety evaluation--drug induced liver injury prediction system (DILIps)” (PLoS Comput Biol, 2011).

Experiments:
Hepatotoxicity [1] = tested on: Hepatotoxicity;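 as to HepSE bilirubinemia: bilirubinemia hepatic side effect score drawn from the DILIps training data, a prediction system for drug-induced liver injury; call rule not given here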;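 as to HepSE cholecystitis: Cholecystitis-related hepatic side effect score drawn from the DILIps (drug-induced liver injury prediction) training data set; call rule not given here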;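 as to HepSE cholelithiasis: hepatic side effect score for cholelithiasis, drawn from the DILIps training data for predicting drug-induced liver injury; call rule not given here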;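 as to HepSE cirrhosis: cirrhosis hepatic side effect score taken from the DILIps (drug-induced liver injury prediction) training set; call rule not given here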;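 as to HepSE elevated liver function tests: hepatic side effect score for raised liver function tests, as recorded in the DILIps training set used for predicting drug-induced liver injury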; as to HepSE hepatic failure: call rule not given here;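 as to HepSE hepatomegaly: hepatic side effect score for hepatomegaly, taken from the training set of the DILIps drug-induced liver injury prediction system; call rule not given here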
Hepatotoxicity [2] = tested on: Hepatotoxicity; remark: listed apart in the source;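 as to HepSE bilirubinemia: bilirubinemia hepatic side effect score drawn from the DILIps training data, a prediction system for drug-induced liver injury; call rule not given here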;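 as to HepSE cholecystitis: Cholecystitis-related hepatic side effect score drawn from the DILIps (drug-induced liver injury prediction) training data set; call rule not given here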;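 as to HepSE cholelithiasis: hepatic side effect score for cholelithiasis, drawn from the DILIps training data for predicting drug-induced liver injury; call rule not given here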;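 as to HepSE cirrhosis: cirrhosis hepatic side effect score taken from the DILIps (drug-induced liver injury prediction) training set; call rule not given here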;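 as to HepSE elevated liver function tests: hepatic side effect score for raised liver function tests, as recorded in the DILIps training set used for predicting drug-induced liver injury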; as to HepSE hepatic failure: call rule not given here
Hepatotoxicity [3] = tested on: Hepatotoxicity; remark: listed apart in the source;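 as to HepSE bilirubinemia: bilirubinemia hepatic side effect score drawn from the DILIps training data, a prediction system for drug-induced liver injury; call rule not given here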;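 as to HepSE cholecystitis: Cholecystitis-related hepatic side effect score drawn from the DILIps (drug-induced liver injury prediction) training data set; call rule not given here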;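 as to HepSE cholelithiasis: hepatic side effect score for cholelithiasis, drawn from the DILIps training data for predicting drug-induced liver injury; call rule not given here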;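 as to HepSE cirrhosis: cirrhosis hepatic side effect score taken from the DILIps (drug-induced liver injury prediction) training set; call rule not given here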;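 as to HepSE elevated liver function tests: hepatic side effect score for raised liver function tests, as recorded in the DILIps training set used for predicting drug-induced liver injury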; as to HepSE hepatic failure: call rule not given here
Hepatotoxicity [4] = tested on: Hepatotoxicity; remark: listed apart in the source;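 as to HepSE bilirubinemia: bilirubinemia hepatic side effect score drawn from the DILIps training data, a prediction system for drug-induced liver injury; call rule not given here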;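 as to HepSE cholecystitis: Cholecystitis-related hepatic side effect score drawn from the DILIps (drug-induced liver injury prediction) training data set; call rule not given here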;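 as to HepSE cholelithiasis: hepatic side effect score for cholelithiasis, drawn from the DILIps training data for predicting drug-induced liver injury; call rule not given here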;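 as to HepSE cirrhosis: cirrhosis hepatic side effect score taken from the DILIps (drug-induced liver injury prediction) training set; call rule not given here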;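 as to HepSE elevated liver function tests: hepatic side effect score for raised liver function tests, as recorded in the DILIps training set used for predicting drug-induced liver injury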; as to HepSE hepatic failure: call rule not given here
Hepatotoxicity [5] = tested on: Hepatotoxicity; remark: listed apart in the source; as to HepSE hepatic failure: call rule not given here
Hepatotoxicity [6] = tested on: Hepatotoxicity; remark: listed apart in the source; as to HepSE hepatic failure: call rule not given here
Hepatotoxicity [7] = tested on: Hepatotoxicity; remark: listed apart in the source
Hepatotoxicity [8] = tested on: Hepatotoxicity; remark: listed apart in the source
Hepatotoxicity [9] = tested on: Hepatotoxicity; remark: listed apart in the source
Hepatotoxicity [10] = tested on: Hepatotoxicity; remark: listed apart in the source
Hepatotoxicity [11] = tested on: Hepatotoxicity; remark: listed apart in the source
Hepatotoxicity [12] = tested on: Hepatotoxicity; remark: listed apart in the source
Hepatotoxicity [13] = tested on: Hepatotoxicity; remark: listed apart in the source
Hepatotoxicity [14] = tested on: Hepatotoxicity; remark: listed apart in the source

SMILES	HepSE_bilirubinemia (Hepatotoxicity [1])	HepSE_cholecystitis (Hepatotoxicity [2])	HepSE_cholelithiasis (Hepatotoxicity [3])	HepSE_cirrhosis (Hepatotoxicity [4])	HepSE_elevated liver function tests (Hepatotoxicity [5])	HepSE_hepatic failure (Hepatotoxicity [6])	HepSE_hepatic necrosis (Hepatotoxicity [7])	HepSE_hepatitis (Hepatotoxicity [8])	HepSE_hepatomegaly (Hepatotoxicity [9])	HepSE_jaundice (Hepatotoxicity [10])	HepSE_liver disease (Hepatotoxicity [11])	HepSE_liver fatty (Hepatotoxicity [12])	HepSE_liver function tests abnormal (Hepatotoxicity [13])	HepSE_Combined Scores (Hepatotoxicity [14])
O=S(=O)(OC[C@H]1O[C@@H](O[C@]2(COS(=O)(=O)[O][Al]([OH])[OH])O[C@H](OS(=O)(=O)[O][Al]([OH])[OH])[C@@H](OS(=O)(=O)[O][Al]([OH])[OH])[C@@H]2OS(=O)(=O)[O][Al]([OH])[OH])[C@H](OS(=O)(=O)[O][Al]([OH])[OH])[C@@H](OS(=O)(=O)[O][Al]([OH])[OH])[C@@H]1OS(=O)(=O)[O][Al]([OH])[OH])[O][Al]([OH])[OH].[OH][Al]([OH])[OH].[OH][Al]([OH])[OH].[OH][Al]([OH])[OH].[OH][Al]([OH])[OH].[OH][Al]([OH])[OH].[OH][Al]([OH])[OH].[OH][Al]([OH])[OH].[OH][Al]([OH])[OH]	0	0	0	0	0	0	0	0	0	0	0	0	0	0
Oc1ncnc2[nH]ncc12 [ALLOPURINOL]	1	0	0	0	0	0	1	1	1	1	0	0	0	5
O=P(O)(O)C(Sc1ccc(Cl)cc1)P(=O)(O)O [TILUDRONIC ACID]	0	0	0	0	0	0	0	0	0	0	0	0	0	0
NC(=O)CC[C@@H]1NC(=O)[C@H](Cc2ccccc2)NC(=O)[C@H](Cc2ccc(O)cc2)NC(=O)CCSSC[C@@H](C(=O)N2CCC[C@H]2C(=O)N[C@H](CCCN=C(N)N)C(=O)NCC(N)=O)NC(=O)[C@H](CC(N)=O)NC1=O [DESMOPRESSIN]	0	0	0	0	0	0	0	0	0	0	0	0	0	0
COc1cc(NS(C)(=O)=O)ccc1Nc1c2ccccc2nc2ccccc12 [AMSACRINE]	0	0	0	0	0	1	0	1	0	1	0	0	0	3
CNC1=Nc2ccc(Cl)cc2C(c2ccccc2)=[N+]([O-])C1 [CHLORDIAZEPOXIDE]	0	0	0	0	0	0	0	0	0	1	0	0	0	1
C#CC1(O)CCC2C3CCC4=CC(=O)CCC4C3C(=C)CC21CC (stereo not drawn) [IMPLANON]	0	0	0	0	0	0	0	0	0	0	0	0	0	0
CCCN(CCc1ccsc1)C1CCc2c(O)cccc2C1 (stereo not drawn)	0	0	0	0	0	0	0	0	0	0	0	0	0	0
COCCOC(=O)C1=C(C)NC(C)=C(C(=O)OC(C)C)C1c1cccc([N+](=O)[O-])c1 (stereo not drawn) [NIMODIPINE]	0	0	0	0	0	0	0	1	0	1	0	0	0	2
CC(=O)[C@@]1(O)CC[C@H]2[C@@H]3C=C(Cl)C4=CC(=O)[C@@H]5C[C@@H]5[C@]4(C)[C@H]3CC[C@@]21C [CYPROTERONE]	0	0	0	1	0	1	1	1	1	1	0	0	0	6
Cc1nnc2n1-c1ccc(Cl)cc1C(c1ccccc1Cl)=NC2 [TRIAZOLAM]	0	0	0	0	0	1	0	0	0	1	0	0	0	2
Nc1ccc(C(=O)NCC(=O)O)cc1 [AMINOHIPPURIC ACID]	0	0	0	0	0	0	0	0	0	0	0	0	0	0
